Columns and labels:
[1] = tested on: primary nasal septal epithelial cells; format: cell-based, C57BL/6N mice
nasal septal tissue = tested on: nasal septal tissue; design: species or system C57BL/6 mice; conditions: mouse, in vivo
TC-1 epithelial cells = format: cell-based, murine
[2] = tested on: B6.Cg-Tg(HLA-A/H2-D)2Enge/J mice; conditions: mouse, in vivo
[3] = tested on: Bone marrow derived dendritic cells (BMDC); format: cell-based, C57BL/6 mice
nasal epithelial cells = test: Detection of apoptosis (caspase-3 staining) and necrosis (morphology) in nasal epithelium; conditions: 2 hours following nasal treatment, 15 μl

Molecule | surface expression of MHC class II [1] | cytokine response profile in nasal septal tissue (nasal septal tissue) | IL-6, TGF-β and TSLP in TC-1 supernatant (TC-1 epithelial cells) | end titer of anti-HBsAg IgG [2] | secreted anti-HBsAg IgA [2] | cytokines and chemokines in BMDC supernatant [3] | inflammation in nasal epithelium (nasal epithelial cells)
cholera toxin [CT] | no significant difference | increases in only IL-6 and IL-12 common to both NE and CT | only IL-6 was induced | 6.4×10^5 | equivalent local mucosal immune responses | stimulated IL-1α, IL-1β and MIP-1α in BMDC in addition to IL-10, G-CSF, IL-10, IL-4, IL-6, IL-9, IL-12, IL-15, IL-17, TNF-α, and KC | –
CCCCCCCCCCCCCCCC[n+]1ccccc1 [CPC, cetylpyridinium chloride] | – | – | – | – | – | – | neutrophilic infiltration

— US20130273113A1 (priority 2012, published 2013)
